{"source": "PubChem BioAssay AID248", "about": "(DTP/NCI, 2004)", "test_system": "L1210 leukemia ip in BDF1 mice, survival T/C", "assay": "NCI In Vivo Anticancer Drug Screen. Data for tumor model L1210 Leukemia (intraperitoneal) in B6D2F1 (BDF1) mice", "details": "higher = longer survival", "method_in_brief": "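Ratio derived from survival: compound-dosed mice over vehicle-dosed mice, all bearing a transplantable tumor.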", "key": {"[1]": {"details": "endpoint: mean survival time, dose: 100.0 mg/kg/injection, schedule: Q04DX002 (ip), vehicle: saline with Tween-80"}, "[2]": {"details": "endpoint: mean survival time, dose: 200.0 mg/kg/injection, schedule: Q04DX002 (ip), vehicle: saline with Tween-80"}, "[3]": {"details": "endpoint: mean survival time, dose: 400.0 mg/kg/injection, schedule: Q04DX002 (ip), vehicle: saline with Tween-80"}, "[4]": {"details": "endpoint: mean survival time, dose: 100.0 mg/kg/injection, schedule: Q04DX003 (ip), vehicle: Klucel (hydroxypropylcellulose) (HPC)"}, "[5]": {"details": "endpoint: mean survival time, dose: 200.0 mg/kg/injection, schedule: Q04DX003 (ip), vehicle: Klucel (hydroxypropylcellulose) (HPC)"}, "[6]": {"details": "endpoint: mean survival time, dose: 100.0 mg/kg/injection, schedule: Q01DX009 (ip), vehicle: Klucel (hydroxypropylcellulose) (HPC)"}, "[7]": {"details": "endpoint: mean survival time, dose: 200.0 mg/kg/injection, schedule: Q01DX009 (ip), vehicle: Klucel (hydroxypropylcellulose) (HPC)"}}, "note": "Several values for one entry are separate records, joined by “and”; a condition that tells them apart may be missing. Equal entries are not always repeated. Toxic doses and inconclusive results are not listed.", "data": [{"smiles": "CN(CCO)/N=N/c1[nH]ncc1C(N)=O", "values": [{"measurement": "T/C", "setting": "endpoint: mean survival time, dose: 54.0 mg/kg/injection, schedule: Q01DX009 (ip), vehicle: other", "result": "124 % of control"}, {"measurement": "T/C", "setting": "endpoint: mean survival time, dose: 176.0 mg/kg/injection, schedule: Q01DX009 (ip), vehicle: other", "result": "159 % of control"}, {"measurement": "T/C", "setting": "endpoint: mean survival time, dose: 345.0 mg/kg/injection, schedule: Q01DX009 (ip), vehicle: saline with Tween-80", "result": "163 % of control"}, {"measurement": "T/C", "setting": "endpoint: mean survival time, dose: 400.0 mg/kg/injection, schedule: Q01DX009 (ip), vehicle: other", "result": "159 % of control"}, {"measurement": "T/C", "setting": "endpoint: mean survival time, dose: 472.25 mg/kg/injection, schedule: Q01DX001 (ip), vehicle: saline with Tween-80", "result": "109 % of control"}, {"measurement": "T/C", "setting": "endpoint: mean survival time, dose: 600.0 mg/kg/injection, schedule: Q01DX009 (ip), vehicle: other", "result": "189 % of control"}, {"measurement": "T/C", "setting": "endpoint: mean survival time, dose: 690.0 mg/kg/injection, schedule: Q01DX009 (ip), vehicle: saline with Tween-80", "result": "192 % of control"}, {"measurement": "T/C", "setting": "endpoint: mean survival time, dose: 900.0 mg/kg/injection, schedule: Q01DX009 (ip), vehicle: other", "result": "196 % of control"}, {"measurement": "T/C", "setting": "endpoint: mean survival time, dose: 944.5 mg/kg/injection, schedule: Q01DX001 (ip), vehicle: saline with Tween-80", "result": "119 % of control"}, {"measurement": "T/C", "setting": "endpoint: median survival time, dose: 63.0 mg/kg/injection, schedule: Q01DX009 (ip), vehicle: saline", "result": "119 % of control"}, {"measurement": "T/C", "setting": "endpoint: median survival time, dose: 250.0 mg/kg/injection, schedule: Q01DX009 (ip), vehicle: saline", "result": "156 % of control"}, {"measurement": "T/C", "setting": "endpoint: median survival time, dose: 500.0 mg/kg/injection, schedule: Q01DX009 (ip), vehicle: saline", "result": "173 % of control"}, {"measurement": "T/C", "setting": "endpoint: median survival time, dose: 1000.0 mg/kg/injection, schedule: Q01DX009 (ip), vehicle: saline", "result": "201 % of control"}]}, {"smiles": "CCCCNC(=O)n1nnc2ccccc21", "values": [{"measurement": "T/C", "setting": "[1]", "result": "100 % of control and 103 % of control"}, {"measurement": "T/C", "setting": "[2]", "result": "105 % of control and 92 % of control"}, {"measurement": "T/C", "setting": "[3]", "result": "96 % of control and 116 % of control"}]}, {"smiles": "CC(=O)Nc1nc(Cl)c2ncn(C3CC(OC(=O)c4ccc(C)cc4)C(COC(=O)c4ccc(C)cc4)O3)c2n1", "note": "(stereo unspecified)", "values": [{"measurement": "T/C", "setting": "endpoint: mean survival time, dose: 100.0 mg/kg/injection, schedule: Q01DX005 (ip), vehicle: saline", "result": "109 % of control and 114 % of control"}, {"measurement": "T/C", "setting": "endpoint: mean survival time, dose: 100.0 mg/kg/injection, schedule: Q01DX009 (ip), vehicle: saline", "result": "102 % of control"}, {"measurement": "T/C", "setting": "endpoint: mean survival time, dose: 200.0 mg/kg/injection, schedule: Q01DX005 (ip), vehicle: saline", "result": "103 % of control and 104 % of control"}, {"measurement": "T/C", "setting": "endpoint: mean survival time, dose: 200.0 mg/kg/injection, schedule: Q01DX009 (ip), vehicle: saline", "result": "102 % of control"}, {"measurement": "T/C", "setting": "endpoint: mean survival time, dose: 400.0 mg/kg/injection, schedule: Q01DX009 (ip), vehicle: saline", "result": "107 % of control"}]}, {"smiles": "CCOC(=O)C(CCC#N)(CCC#N)C(C)=O", "values": [{"measurement": "T/C", "setting": "[4]", "result": "105 % of control"}, {"measurement": "T/C", "setting": "[5]", "result": "94 % of control"}]}, {"smiles": "c1ccc(C(CCCCC(c2ccccc2)c2ccccc2)c2ccccc2)cc1", "values": [{"measurement": "T/C", "setting": "endpoint: mean survival time, dose: 75.0 mg/kg/injection, schedule: Q01DX001 (ip), vehicle: saline", "result": "94 % of control"}, {"measurement": "T/C", "setting": "endpoint: mean survival time, dose: 150.0 mg/kg/injection, schedule: Q01DX001 (ip), vehicle: saline", "result": "92 % of control"}, {"measurement": "T/C", "setting": "endpoint: mean survival time, dose: 300.0 mg/kg/injection, schedule: Q01DX001 (ip), vehicle: saline", "result": "93 % of control"}]}, {"smiles": "CSC(=N)c1cccc(OCc2ccccc2)c1", "values": [{"measurement": "T/C", "setting": "[6]", "result": "113 % of control"}, {"measurement": "T/C", "setting": "endpoint: mean survival time, dose: 100.0 mg/kg/injection, schedule: Q04DX002 (ip), vehicle: Klucel (hydroxypropylcellulose) (HPC)", "result": "100 % of control"}, {"measurement": "T/C", "setting": "endpoint: mean survival time, dose: 100.0 mg/kg/injection, schedule: Q04DX002 (ip), vehicle: saline", "result": "102 % of control"}, {"measurement": "T/C", "setting": "[7]", "result": "96 % of control"}, {"measurement": "T/C", "setting": "endpoint: mean survival time, dose: 200.0 mg/kg/injection, schedule: Q04DX002 (ip), vehicle: Klucel (hydroxypropylcellulose) (HPC)", "result": "103 % of control"}, {"measurement": "T/C", "setting": "endpoint: mean survival time, dose: 200.0 mg/kg/injection, schedule: Q04DX002 (ip), vehicle: saline", "result": "102 % of control"}, {"measurement": "T/C", "setting": "endpoint: mean survival time, dose: 400.0 mg/kg/injection, schedule: Q04DX002 (ip), vehicle: Klucel (hydroxypropylcellulose) (HPC)", "result": "94 % of control"}, {"measurement": "T/C", "setting": "endpoint: mean survival time, dose: 400.0 mg/kg/injection, schedule: Q04DX002 (ip), vehicle: saline", "result": "102 % of control"}]}, {"smiles": "CCNP(=S)(SCC)SCC", "values": [{"measurement": "T/C", "setting": "[1]", "result": "96 % of control"}, {"measurement": "T/C", "setting": "[2]", "result": "89 % of control"}, {"measurement": "T/C", "setting": "[3]", "result": "101 % of control"}]}, {"smiles": "ClCCC[S][Pb]([c]1ccccc1)([c]1ccccc1)[c]1ccccc1", "values": [{"measurement": "T/C", "setting": "endpoint: mean survival time, dose: 25.0 mg/kg/injection, schedule: Q04DX002 (sc), vehicle: olive oil, sesame oil, peanut oil", "result": "100 % of control"}, {"measurement": "T/C", "setting": "endpoint: mean survival time, dose: 50.0 mg/kg/injection, schedule: Q04DX002 (sc), vehicle: olive oil, sesame oil, peanut oil", "result": "116 % of control"}]}, {"smiles": "CC(=O)OCC1=C(COC(C)=O)C2OC1C1OC(=O)OC21", "note": "(stereo unspecified)", "values": [{"measurement": "T/C", "setting": "endpoint: mean survival time, dose: 75.0 mg/kg/injection, schedule: Q01DX009 (ip), vehicle: Klucel (hydroxypropylcellulose) (HPC)", "result": "97 % of control"}, {"measurement": "T/C", "setting": "[6]", "result": "105 % of control"}, {"measurement": "T/C", "setting": "endpoint: mean survival time, dose: 150.0 mg/kg/injection, schedule: Q01DX009 (ip), vehicle: Klucel (hydroxypropylcellulose) (HPC)", "result": "92 % of control"}, {"measurement": "T/C", "setting": "[7]", "result": "97 % of control"}, {"measurement": "T/C", "setting": "endpoint: mean survival time, dose: 300.0 mg/kg/injection, schedule: Q01DX009 (ip), vehicle: Klucel (hydroxypropylcellulose) (HPC)", "result": "104 % of control"}, {"measurement": "T/C", "setting": "endpoint: mean survival time, dose: 400.0 mg/kg/injection, schedule: Q01DX009 (ip), vehicle: Klucel (hydroxypropylcellulose) (HPC)", "result": "101 % of control"}]}, {"smiles": "CCC1(O)C(=O)OCc2c1ccn(Cc1ccc3ccccc3c1)c2=O", "note": "(stereo unspecified)", "values": [{"measurement": "T/C", "setting": "endpoint: mean survival time, dose: 25.0 mg/kg/injection, schedule: Q01DX001 (ip), vehicle: saline", "result": "92 % of control"}, {"measurement": "T/C", "setting": "endpoint: mean survival time, dose: 50.0 mg/kg/injection, schedule: Q01DX001 (ip), vehicle: saline", "result": "97 % of control"}, {"measurement": "T/C", "setting": "endpoint: mean survival time, dose: 100.0 mg/kg/injection, schedule: Q01DX001 (ip), vehicle: saline", "result": "96 % of control"}, {"measurement": "T/C", "setting": "endpoint: mean survival time, dose: 200.0 mg/kg/injection, schedule: Q01DX001 (ip), vehicle: saline", "result": "94 % of control"}]}, {"smiles": "CCCCS/C=C1/CC2(C)C(CCC3C4CCC(O)C4(C)CCC32)CC1=O", "note": "(stereo unspecified)", "values": [{"measurement": "T/C", "setting": "[4]", "result": "89 % of control"}, {"measurement": "T/C", "setting": "[5]", "result": "91 % of control"}]}]}
